In the assay the target is muscle-type creatine kinase (CK-MM) (Homo sapiens, UniProt P06732). Kind of assay: BLI direct binding response at […].
Chain of muscle-type creatine kinase (CK-MM) (P06732 whole entry): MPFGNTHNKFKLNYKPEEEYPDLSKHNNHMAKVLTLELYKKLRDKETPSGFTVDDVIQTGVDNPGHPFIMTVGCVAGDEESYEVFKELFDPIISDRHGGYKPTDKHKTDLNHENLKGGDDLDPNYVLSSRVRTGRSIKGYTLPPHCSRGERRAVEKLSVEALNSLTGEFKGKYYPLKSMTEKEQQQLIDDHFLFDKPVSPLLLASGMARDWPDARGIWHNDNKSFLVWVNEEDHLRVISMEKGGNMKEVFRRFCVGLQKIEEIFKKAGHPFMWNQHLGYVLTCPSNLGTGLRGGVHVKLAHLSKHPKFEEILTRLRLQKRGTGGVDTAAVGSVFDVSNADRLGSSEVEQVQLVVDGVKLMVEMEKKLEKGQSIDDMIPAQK
Consider `CC(C)=CCC[C@](C)(O[C@@H]1O[C@H](CO)[C@@H](O)[C@H](O)[C@H]1O)[C@H]1CC[C@]2(C)[C@@H]1[C@H](O)C[C@@H]1[C@@]3(C)CC[C@H](O)C(C)(C)[C@@H]3CC[C@]12C` [GK, ginsenoside compound K], for which the “BLI direct binding response at 300 uM (no KD)” value is “F1, Rh2, K, and their aglycones (PPT and PPD) displayed gradually direct interaction with CK-MM”.

As to `CC(C)=CCC[C@](C)(O)[C@H]1CC[C@]2(C)[C@@H]1[C@H](O)C[C@@H]1[C@@]3(C)CC[C@H](O)C(C)(C)[C@@H]3[C@@H](O)C[C@]12C` [PPT, 20(S)-protopanaxatriol], the “BLI direct binding response at 300 uM (no KD)” value was “F1, Rh2, K, and their aglycones (PPT and PPD) displayed gradually direct interaction with CK-MM”.

Take `CC(C)=CCC[C@](C)(O)[C@H]1CC[C@]2(C)[C@@H]1[C@H](O)C[C@@H]1[C@@]3(C)CC[C@H](O[C@@H]4O[C@H](CO)[C@@H](O)[C@H](O)[C@H]4O)C(C)(C)[C@@H]3CC[C@]12C` [Rh2, ginsenoside Rh2]: the “BLI direct binding response at 300 uM (no KD)” value was “F1, Rh2, K, and their aglycones (PPT and PPD) displayed gradually direct interaction with CK-MM”.

The values above are taken from PMC7195589 (Journal of Ginseng Research, 2019).
